The conditions of data set [1]: oral administration to rats, versus a formulation in lipid alone; cited from earlier work.
Data set [2] can be described thus: Solubility of ingenol-3-angelate in co-solvents. The class given is physicochemical. The settings on record: organic solvent or mixture. The text has this: In order to effect a highly efficient dissolution of the ingenol derivative it may be favourably to add a co-solvent to the composition. The co-solvent may be selected from the group consisting of lower alcohols, such as n-propanol, isopropanol, n-butanol, 2-butanol or benzyl alcohol, diols such as propylene glycol, a pyrrolidone such as N-methylpyrrolidone or N-hydroxyalkylpyrrolidone, an azone, ethyl acetate, dodecyl amine, diethylene glycol monoethyl ether, a fatty acid such as oleic or lauric acid, propylene carbonate, menthol or limolene. In particular, ingenol-3-angelate is soluble to freely soluble in the co-solvents benzyl alcohol (201-223 mg/ml), N-methylpyrrolidone (104-260 mg/ml), ethyl acetate (102-255 mg/ml), isopropanol (225-248 mg/ml) and diethylene glycol monoethyl ether (57-114 mg/ml). Some of these co-solvents, such as lower alcohols, may also, as required, act as penetration enhancers aiding the penetration of the ingenol derivative into the viable layers of the skin.

Molecules are shown by their SMILES. In brackets after ≈: the same amount, converted by molar mass. Like-named read-outs stand apart in the source and are kept apart here.

On to `C=C1/C(=C\C=C2/CCC[C@]3(C)[C@@H]([C@H](C)/C=C/C=C/C(O)(CC)CC)CC[C@@H]23)C[C@@H](O)C[C@@H]1O` [seocalcitol], for which, in data set [1], the bioavailability of seocalcitol result is recorded as “not improved”.

Consider `C/C=C(/C)C(=O)O[C@H]1C(C)=C[C@]23C(=O)[C@@H](C=C(CO)[C@@H](O)[C@]12O)[C@H]1[C@@H](C[C@H]3C)C1(C)C` [ingenol-3-angelate, 2-methyl-2(Z)-butenoic acid (1aR,2S,5R,5aS,6S,8aS,9R,10aR)-5,5a-dihydroxy-4-(hydroxymethyl)-1,1,7,9-tetramethyl-11-oxo-1a,2,5,5a,6,9,10,10a-octahydro-1H-2,8a-methanocyclopenta[a]cyclopropa[e]cyclodecen-6-yl ester], for which the solubility lay in the range of 104 to 260 mg/mL (≈ 242 to 604 mM) in data set [2] (co-solvent N-methylpyrrolidone, read-out: solubility in N-methylpyrrolidone); 201 to 223 mg/mL (≈ 467 to 518 mM) in data set [2] (co-solvent benzyl alcohol, read-out: solubility in benzyl alcohol); 57 to 114 mg/mL (≈ 132 to 265 mM) in data set [2] (co-solvent diethylene glycol monoethyl ether, read-out: solubility in diethylene glycol monoethyl ether); 102 to 255 mg/mL (≈ 237 to 592 mM) in data set [2] (co-solvent ethyl acetate, read-out: solubility in ethyl acetate); 225 to 248 mg/mL (≈ 523 to 576 mM) in data set [2] (co-solvent isopropanol, read-out: solubility in isopropanol).

Values taken from US20150133543A1, “TOPICAL GEL COMPOSITION COMPRISING AN INGENOL DERIVATIVE AND A SOLVENT MIXTURE” (LEO Laboratories Limited, priority 2012, published 2015).
